This note sets out measurements from patent EP4722207A1, “OXOISOINDOLINYL-SUBSTITUTED TETRAHYDROPYRIMIDINEDIONE DERIVATIVE AND USE THEREOF” (Gluetacs Therapeutics (Shanghai) Co., Ltd., priority 2023, dated 2024).

One test relates to H2228. As to the kind of experiment: Cell viability assay (CellTiter-Meiluncell Luminescent), tumor cell proliferation, H2228. To be noted: Homo sapiens, NCI-H2228, 96 h; for inhibition at 0.01 µM: read-out: Inhibition Rate at 10 nM (%); for inhibition at 0.5 µM: read-out: Inhibition Rate at 500 nM (%).
For a further test, the target named is T1, IKZF1 (Homo sapiens, UniProt Q13422+Q96SW2).
T1 construct: effects of the compounds of the present disclosure on the expression of target proteins in cells; endogenous in cells; host or cells: human PBMCs (hPBMCs)
T1 sequence (Q13422 whole entry): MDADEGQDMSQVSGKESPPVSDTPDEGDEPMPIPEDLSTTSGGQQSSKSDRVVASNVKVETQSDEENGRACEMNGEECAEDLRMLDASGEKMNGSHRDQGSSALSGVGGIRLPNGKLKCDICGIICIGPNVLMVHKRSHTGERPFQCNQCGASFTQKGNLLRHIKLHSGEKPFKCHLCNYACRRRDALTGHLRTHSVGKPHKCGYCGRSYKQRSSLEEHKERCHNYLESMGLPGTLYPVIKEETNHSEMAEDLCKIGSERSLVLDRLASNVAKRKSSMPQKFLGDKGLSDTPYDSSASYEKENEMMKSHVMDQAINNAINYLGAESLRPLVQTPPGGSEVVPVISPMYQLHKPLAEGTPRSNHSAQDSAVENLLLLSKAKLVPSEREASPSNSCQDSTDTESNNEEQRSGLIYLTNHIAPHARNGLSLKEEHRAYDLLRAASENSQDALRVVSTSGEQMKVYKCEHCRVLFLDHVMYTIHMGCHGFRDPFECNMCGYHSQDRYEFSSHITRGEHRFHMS
T1 sequence (Q96SW2 whole entry): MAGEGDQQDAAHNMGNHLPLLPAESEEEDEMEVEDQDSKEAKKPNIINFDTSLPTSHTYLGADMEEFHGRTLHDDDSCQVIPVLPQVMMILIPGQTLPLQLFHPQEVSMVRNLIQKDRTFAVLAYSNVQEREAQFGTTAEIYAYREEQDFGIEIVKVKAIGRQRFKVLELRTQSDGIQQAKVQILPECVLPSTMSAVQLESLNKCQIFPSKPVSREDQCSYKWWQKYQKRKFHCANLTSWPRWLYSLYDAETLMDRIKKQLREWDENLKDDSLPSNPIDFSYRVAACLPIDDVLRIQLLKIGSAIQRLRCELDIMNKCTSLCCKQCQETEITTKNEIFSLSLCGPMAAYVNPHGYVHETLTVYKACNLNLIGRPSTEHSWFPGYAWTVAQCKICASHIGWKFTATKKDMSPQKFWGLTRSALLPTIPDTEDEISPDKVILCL
T1 sequence (Q16531 whole entry partner): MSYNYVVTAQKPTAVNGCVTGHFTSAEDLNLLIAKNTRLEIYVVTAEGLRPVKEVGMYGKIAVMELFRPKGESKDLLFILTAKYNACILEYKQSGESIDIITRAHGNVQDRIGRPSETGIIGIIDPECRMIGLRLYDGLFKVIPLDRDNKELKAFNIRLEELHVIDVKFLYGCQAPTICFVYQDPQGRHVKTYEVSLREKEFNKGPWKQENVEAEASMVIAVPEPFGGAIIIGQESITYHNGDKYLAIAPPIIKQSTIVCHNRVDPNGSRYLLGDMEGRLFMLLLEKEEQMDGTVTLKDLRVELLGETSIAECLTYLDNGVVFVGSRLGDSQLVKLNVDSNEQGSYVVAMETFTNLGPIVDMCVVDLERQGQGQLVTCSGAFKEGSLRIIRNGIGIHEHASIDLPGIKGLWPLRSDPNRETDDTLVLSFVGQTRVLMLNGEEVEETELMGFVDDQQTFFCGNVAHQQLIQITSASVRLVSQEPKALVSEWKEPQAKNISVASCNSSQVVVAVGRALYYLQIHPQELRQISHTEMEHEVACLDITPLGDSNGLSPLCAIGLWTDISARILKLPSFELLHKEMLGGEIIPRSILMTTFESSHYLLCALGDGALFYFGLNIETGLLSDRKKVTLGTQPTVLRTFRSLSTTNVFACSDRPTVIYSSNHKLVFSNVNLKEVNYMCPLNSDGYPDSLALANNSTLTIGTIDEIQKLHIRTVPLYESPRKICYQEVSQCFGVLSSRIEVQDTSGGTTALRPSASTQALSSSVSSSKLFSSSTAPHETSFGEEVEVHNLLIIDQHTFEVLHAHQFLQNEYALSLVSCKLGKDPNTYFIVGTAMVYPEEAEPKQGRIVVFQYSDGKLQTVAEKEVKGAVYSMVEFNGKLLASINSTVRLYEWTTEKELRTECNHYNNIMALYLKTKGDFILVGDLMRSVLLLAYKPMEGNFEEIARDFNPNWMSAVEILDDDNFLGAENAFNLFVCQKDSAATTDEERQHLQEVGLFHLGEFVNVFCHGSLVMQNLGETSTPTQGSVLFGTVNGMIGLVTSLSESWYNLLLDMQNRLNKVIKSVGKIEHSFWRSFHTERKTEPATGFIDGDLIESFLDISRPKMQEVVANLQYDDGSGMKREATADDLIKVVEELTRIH
As to the kind of experiment: Western-blot assay, substrate protein degradation in hPBMCs: IKZF1. Particulars: 24 hours of compound treatment, 50 nM and 500 nM. It is filed as cell-based.

The test system of the next test is MDA-MB-231. Description: Cell viability assay (CellTiter-Meiluncell Luminescent), tumor cell proliferation, MDA-MB-231. Particulars: Homo sapiens, MDA-MB-231, 96 h; for inhibition at 0.01 µM: read-out: Inhibition Rate at 10 nM (%); for inhibition at 0.5 µM: read-out: Inhibition Rate at 500 nM (%).
Another test deals with H292. As to the kind of experiment: Cell viability assay (CellTiter-Meiluncell Luminescent), tumor cell proliferation, H292. To be noted: Homo sapiens, NCI-H292, 96 h; for inhibition at 0.01 µM: read-out: Inhibition Rate at 10 nM (%); for inhibition at 0.5 µM: read-out: Inhibition Rate at 500 nM (%).
A further test addresses T2, IKZF2 (Homo sapiens, UniProt Q96SW2+Q9UKS7).
T2 construct: effects of the compounds of the present disclosure on the expression of target proteins in cells; endogenous in cells; host or cells: human PBMCs (hPBMCs)
Description: Western-blot assay, substrate protein degradation in hPBMCs: IKZF2. It is filed as cell-based. To be noted: 24 hours of compound treatment, 50 nM and 500 nM.

The target in another test is T3, IKZF3 (Homo sapiens, UniProt Q96SW2+Q9UKT9).
T3 construct: effects of the compounds of the present disclosure on the expression of target proteins in cells; endogenous in cells; host or cells: human PBMCs (hPBMCs)
T3 sequence (Q9UKT9 whole entry): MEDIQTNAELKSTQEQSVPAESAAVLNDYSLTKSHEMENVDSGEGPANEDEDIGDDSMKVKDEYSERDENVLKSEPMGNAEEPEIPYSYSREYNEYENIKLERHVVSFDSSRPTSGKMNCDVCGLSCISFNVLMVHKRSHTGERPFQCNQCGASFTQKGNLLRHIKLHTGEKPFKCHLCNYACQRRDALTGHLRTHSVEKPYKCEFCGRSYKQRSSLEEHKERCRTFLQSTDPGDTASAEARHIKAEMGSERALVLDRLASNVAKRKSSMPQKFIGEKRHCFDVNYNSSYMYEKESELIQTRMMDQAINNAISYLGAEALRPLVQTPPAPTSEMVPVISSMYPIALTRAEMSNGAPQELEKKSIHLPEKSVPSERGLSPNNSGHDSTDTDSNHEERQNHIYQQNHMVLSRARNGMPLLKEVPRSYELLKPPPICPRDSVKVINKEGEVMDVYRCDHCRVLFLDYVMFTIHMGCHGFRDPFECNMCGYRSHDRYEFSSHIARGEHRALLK
T3 sequence (Q96SW2 whole entry): as the sequence (Q96SW2 whole entry) above
T3 sequence (Q16531 whole entry partner): as the sequence (Q16531 whole entry partner) above
As to the kind of experiment: Western-blot assay, substrate protein degradation in hPBMCs: IKZF3. Particulars: 24 hours of compound treatment, 50 nM and 500 nM. The format is cell-based.

Another test deals with T4, WEE1 (Homo sapiens, UniProt P30291+Q96SW2).
T4 construct: effects of the compounds of the present disclosure on the expression of target proteins in cells; endogenous in cells; host or cells: human PBMCs (hPBMCs)
T4 sequence (P30291 whole entry): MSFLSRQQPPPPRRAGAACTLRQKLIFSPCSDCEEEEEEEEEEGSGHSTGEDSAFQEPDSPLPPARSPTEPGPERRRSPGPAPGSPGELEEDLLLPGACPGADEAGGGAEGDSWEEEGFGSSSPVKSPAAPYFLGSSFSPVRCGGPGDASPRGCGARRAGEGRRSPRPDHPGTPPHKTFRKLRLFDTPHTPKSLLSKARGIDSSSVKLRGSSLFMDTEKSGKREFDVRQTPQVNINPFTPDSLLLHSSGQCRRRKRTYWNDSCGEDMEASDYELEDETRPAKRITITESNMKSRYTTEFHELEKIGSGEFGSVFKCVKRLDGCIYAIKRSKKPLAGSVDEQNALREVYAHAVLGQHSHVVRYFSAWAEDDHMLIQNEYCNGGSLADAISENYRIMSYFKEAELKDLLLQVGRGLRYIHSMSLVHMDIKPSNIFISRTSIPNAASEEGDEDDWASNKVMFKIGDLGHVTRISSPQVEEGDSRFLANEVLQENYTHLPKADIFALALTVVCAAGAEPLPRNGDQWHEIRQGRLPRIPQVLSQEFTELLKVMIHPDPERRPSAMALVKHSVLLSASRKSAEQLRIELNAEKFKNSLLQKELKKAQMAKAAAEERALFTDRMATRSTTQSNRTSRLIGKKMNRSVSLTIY
T4 sequence (Q96SW2 whole entry): as the sequence (Q96SW2 whole entry) above
T4 sequence (Q16531 whole entry partner): as the sequence (Q16531 whole entry partner) above
As to the kind of experiment: Western-blot assay, substrate protein degradation in hPBMCs: WEE1. It is filed as cell-based. To be noted: 24 hours of compound treatment, 50 nM and 500 nM.

The test system of a further test is MM.1S. Description: Cell viability assay (CellTiter-Meiluncell Luminescent), tumor cell proliferation, MM.1S. To be noted: Homo sapiens, MM1.S, 96 h; for inhibition at 0.01 µM: read-out: Inhibition Rate at 10 nM (%); for inhibition at 0.5 µM: read-out: Inhibition Rate at 500 nM (%).
Another test addresses T5, CK1α (Homo sapiens, UniProt P48729+Q96SW2).
T5 construct: effects of the compounds of the present disclosure on the expression of target proteins in cells; endogenous in cells; host or cells: human PBMCs (hPBMCs)
As to the kind of experiment: Western-blot assay, substrate protein degradation in hPBMCs: CK1α. It is filed as cell-based. Particulars: 24 hours of compound treatment, 50 nM and 500 nM.

Another test concerns the target T6, GSPT1 (Homo sapiens, UniProt P15170+Q96SW2).
T6 construct: effects of the compounds of the present disclosure on the expression of target proteins in cells; endogenous in cells; host or cells: human PBMCs (hPBMCs)
As to the kind of experiment: Western-blot assay, substrate protein degradation in hPBMCs: GSPT1. The format is cell-based. To be noted: 24 hours of compound treatment, 50 nM and 500 nM.

A further test has as its system MV-4-11. As to the kind of experiment: Cell viability assay (CellTiter-Meiluncell Luminescent), tumor cell proliferation, MV-4-11. Particulars: Homo sapiens, MV4-11, 96 h; for inhibition at 0.01 µM: read-out: Inhibition Rate at 10 nM (%); for inhibition at 0.5 µM: read-out: Inhibition Rate at 500 nM (%).

Usually inhibition stands for the percentage by which the read-out fell short of the control.

T2 sequence (Q9UKS7 whole entry): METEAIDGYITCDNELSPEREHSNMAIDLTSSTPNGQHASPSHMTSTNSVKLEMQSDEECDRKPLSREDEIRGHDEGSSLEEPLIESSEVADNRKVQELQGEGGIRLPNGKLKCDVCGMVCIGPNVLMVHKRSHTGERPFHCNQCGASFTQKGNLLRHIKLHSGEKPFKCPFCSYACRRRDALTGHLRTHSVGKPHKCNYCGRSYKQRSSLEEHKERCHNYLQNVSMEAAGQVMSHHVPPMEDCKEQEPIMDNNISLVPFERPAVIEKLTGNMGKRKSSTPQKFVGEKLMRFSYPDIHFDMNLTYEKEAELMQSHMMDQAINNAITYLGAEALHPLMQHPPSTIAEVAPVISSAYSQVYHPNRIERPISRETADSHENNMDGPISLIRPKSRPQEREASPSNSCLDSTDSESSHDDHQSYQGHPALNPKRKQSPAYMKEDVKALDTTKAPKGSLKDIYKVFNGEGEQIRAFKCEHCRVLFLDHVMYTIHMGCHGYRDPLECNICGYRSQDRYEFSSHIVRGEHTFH
T2 sequence (Q96SW2 whole entry): as the sequence (Q96SW2 whole entry) above
T2 sequence (Q16531 whole entry partner): as the sequence (Q16531 whole entry partner) above
T5 sequence (P48729 whole entry): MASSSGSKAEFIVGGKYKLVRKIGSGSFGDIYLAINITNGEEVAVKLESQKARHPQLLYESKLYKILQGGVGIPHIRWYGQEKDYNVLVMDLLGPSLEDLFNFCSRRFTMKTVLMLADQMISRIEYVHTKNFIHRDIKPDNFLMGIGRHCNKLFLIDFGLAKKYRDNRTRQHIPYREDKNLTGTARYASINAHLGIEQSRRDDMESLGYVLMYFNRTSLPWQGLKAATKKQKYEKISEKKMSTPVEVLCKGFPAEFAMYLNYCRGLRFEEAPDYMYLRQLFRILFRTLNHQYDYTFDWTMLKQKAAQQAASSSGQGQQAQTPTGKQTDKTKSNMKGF
T5 sequence (Q96SW2 whole entry): as the sequence (Q96SW2 whole entry) above
T5 sequence (Q16531 whole entry partner): as the sequence (Q16531 whole entry partner) above
Description for H292: (§1) The tumor cells used herein were cultured in a cell culture medium listed in table 2 at 37°C in an incubator with 5% CO2. Prior to experimentation, all cell lines used were correctly identified by STR profiling, and tested negative for mycoplasma contamination using a mycoplasma detection kit through routine screenings.
(§2) On the following day, the test compounds of the present disclosure were subjected to serial dilution. […] Subsequently, 0.5 µL of the test compound dilution was transferred into the 96-well plate containing the cells, with each well containing 100 µL of cell culture medium. […] Into the 96-well plate, the diluted test compounds and corresponding detection reagents were added, resulting in final test compound concentrations of 500 nM and 10 nM, respectively. The experimental procedure is described below using the diluted 2 µM test compound as an example.
(§3) After the cells were treated with the compounds of the present disclosure for a specified period, the cell viability assay reagent was added to the culture medium according to the kit's instructions to determine cell viability. […] All controls were treated using the same procedure as the compounds of the present disclosure. The growth inhibition curves for the compounds of the present disclosure were plotted using Prism GraphPad software, and the IC50 values were calculated therefrom.
Description for MDA-MB-231: as §1, §2, §3

Turning to `Cc1sc2ncnc(N3CCCN(Cc4ccc5c(c4)CN(N4CCC(=O)NC4=O)C5=O)CC3)c2c1C` [GT-08062, 1-(5-((4-(5,6-dimethylthieno[2,3-d]pyrimidin-4-yl)-1,4-diazepan-1-yl)methyl)-1-oxoisoindolin-2-yl)dihydropyrimidine-2,4(1H,3H)-dione], the inhibition at 0.01 µM fell in the range of 25 to 30% with H2228, 15 to 18% with MDA-MB-231, 20 to 40% in the test on H292 and 30 to 42% in the test on MM.1S. The inhibition at 0.5 µM in the test with H2228 lay in the range of 30 to 40%; with MDA-MB-231 it was 25 to 40%; in the test with H292, 40 to 60%; in the test on MM.1S, 30 to 42%. In addition, the “substrate protein remaining % IKZF1” value on IKZF1 is listed as “B (80%< substrate protein remaining %≤ 100%)”. Also, the “substrate protein remaining % IKZF2” value on IKZF2 was “A (0% ≤ substrate protein remaining % ≤ 80%)”. The “substrate protein remaining % IKZF3” value at IKZF3 is “A (0% ≤ substrate protein remaining % ≤ 80%)”. Besides, the “substrate protein remaining % WEE1” value at WEE1 is “B (80%< substrate protein remaining %≤ 100%)”. The “substrate protein remaining % CK1α” value on CK1α is on record as “B (80%< substrate protein remaining %≤ 100%)”. Further, at GSPT1, the “substrate protein remaining % GSPT1” value is “B (80%< substrate protein remaining %≤ 100%)”.

Take `O=C1CCN(N2C(=O)c3ccc(CN4CCN(c5ncnc6sc7c(c56)CCCC7)CC4)cc3C2=O)C(=O)N1` [GT-08102, 2-(2,4-dioxotetrahydropyrimidin-1(2H)-yl)-5-((4-(5,6,7,8-tetrahydrobenzo[4,5]thieno[2,3-d]pyrimidin-4-yl)piperazin-1-yl)methyl)isoindoline-1,3-dione]: the inhibition at 0.01 µM fell in the range of 20 to 25% with H2228, 40 to 60% in the test with MV-4-11 and 30 to 42% in the test with MM.1S. The inhibition at 0.5 µM was 20 to 25% with H2228, 40 to 60% in the test on MV-4-11 and 30 to 42% in the test with MM.1S.

As for `O=C1CCN(N2Cc3cc(CN4CCC(c5ncnc6sc7c(c56)CCC7)CC4)ccc3C2=O)C(=O)N1` [GT-08113, 1-(5-((4-(6,7-dihydro-5H-cyclopenta[4,5]thieno[2,3-d]pyrimidin-4-yl)piperidin-1-yl)methyl)-1-oxoisoindolin-2-yl)dihydropyrimidine-2,4(1H,3H)-dione], the inhibition at 0.01 µM is 20 to 25% in the test on H2228, 25 to 40% in the test on MDA-MB-231, 20 to 40% with H292 and 30 to 40% in the test with MV-4-11. Besides, the inhibition at 0.5 µM in the test with H2228 fell in the range of 25 to 30%; in the test on MDA-MB-231 it was 40 to 60%; in the test on H292, 20 to 40%; in the test with MV-4-11, 10 to 18%. In addition, the “substrate protein remaining % IKZF1” value on IKZF1 is recorded as “B (80%< substrate protein remaining %≤ 100%)”. For the same molecule, the “substrate protein remaining % IKZF2” value on IKZF2 is “B (80%< substrate protein remaining %≤ 100%)”. Moreover, the “substrate protein remaining % IKZF3” value at IKZF3 was “B (80%< substrate protein remaining %≤ 100%)”. Besides, the “substrate protein remaining % WEE1” value on WEE1 is “B (80%< substrate protein remaining %≤ 100%)”. The “substrate protein remaining % CK1α” value at CK1α is on record as “A (0% ≤ substrate protein remaining % ≤ 80%)”. Also, the “substrate protein remaining % GSPT1” value on GSPT1 is recorded as “A (0% ≤ substrate protein remaining % ≤ 80%)”.
